In assay [1] the test system is tumor cells transfected with DNA encoding neu. Kind of assay: Tumor challenge model, tumor cells transfected with DNA encoding neu.
Text: In experiments designed to compare the immunogenic response elicited by genetic vaccination and protein vaccination, animal models were designed using tumor cells that specifically express a foreign target protein. Three immune competent mouse models have been developed which express foreign antigens. Three clonal tumor cell lines which are derived from the Balb/c mouse strain are used. […] Subclones have been selected which can display foreign antigens in an unrecognized form. […] Using these models, the immune response elicited by genetic vaccination against an antigen can be measured.
A DNA construct was designed to test the effectiveness of a genetic vaccine against human p185neu in mice. […] The animal model used was described above. Tumor cells were transfected with DNA encoding neu, confirmed to express the protein and implanted into the animal. Controls included untransfected tumor lines.
Controls included unvaccinated animals and animals administered the p185neu protein.
The test system of assay [2] is tumor cells transfected with DNA encoding GA733. Briefly: Tumor challenge model, tumor cells transfected with DNA encoding GA733.
Text: Using these models, the immune response elicited by genetic vaccination against an antigen can be measured.
A DNA construct was designed to test the effectiveness of a genetic vaccine against human GA733 in mice. […] The animal model used was described above. Tumor cells were transfected with DNA encoding GA733, confirmed to express the protein and implanted into the animal. Controls included untransfected tumor lines.
Genetically immunized animals were vaccinated with plasmid pGA733-2, described in Example 14, following the method described above. Controls included unvaccinated animals and animals administered the GA733 protein.

In the case of “p185 protein: p185neu protein administered to control animals”, the “effect on transfected tumors” value in assay [1] (neu-transfected tumors, vaccinated mice) is given as “some reduction in tumor size”. For the same molecule, the effect on mortality entry in assay [1] (vaccinated mice bearing tumors) was “no effect on mortality”.

B1: GA733 protein: GA733 protein administered to control animals (protein, UniProt P16422 24-314, looked up)
Epithelial cell adhesion …: QEECVCENYKLAVNCFVNNNRQCQCTSVGAQNTVICSKLAAKCLVMKAEMNGSKLGRRAKPEGALQNNDGLYDPDCDESGLFKAKQCNGTSMCWCVNTAGVRRTDKDTEITCSERVRTYWIIIELKHKAREKPYDSKSLRTALQKEITTRYQLDPKFITSILYENNVITIDLVQNSSQKTQNDVDIADVAYYFEKDVKGESLFHSKKMDLTVNGEQLDLDPGQTLIYYVDEKAPEFSMQGLKAGVIAVIVVVVIAVVAGIVVLVISRKKRMAKYEKAEIKEMGEMHRELNA
Regarding B1, the “effect on transfected tumors” value in assay [2] (GA733-transfected tumors, vaccinated mice) is listed as “some reduction in tumor size”. Moreover, the effect on mortality result in assay [2] (vaccinated mice bearing tumors) is reported as “no effect on mortality”.

These data come from patent US8304234B2, “Compositions and methods for delivery of genetic material” (The Trustees of the Universtiy of Pennsylvania, priority 1993, dated 2012).
